Holding throughout (experiment): intrinsic tryptophan fluorescence quenching
Format in all cases: binding

Assay [1] addresses T1, HucR-H51F (Deinococcus radiodurans, UniProt Q9RV71, H51F).
The target of assay [2] is T2, HucR (hypothetical uricase regulator), HucR-WT (Deinococcus radiodurans, UniProt Q9RV71).
T2 sequence (Q9RV71 1-181): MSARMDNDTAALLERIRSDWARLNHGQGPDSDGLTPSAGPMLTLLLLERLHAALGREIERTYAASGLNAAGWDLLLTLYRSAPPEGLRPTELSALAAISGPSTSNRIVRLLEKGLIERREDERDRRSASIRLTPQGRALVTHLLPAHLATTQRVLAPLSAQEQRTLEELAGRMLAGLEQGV

The target of assay [3] is T3, HucR-E48Q (Deinococcus radiodurans, UniProt Q9RV71, E48Q).
Assay [4] addresses T2, HucR (hypothetical uricase regulator), HucR-WT. This is another data set of the same source.
The target in assay [5] is T1, HucR-H51F. The source holds these as a separate data set.
Assay [6] addresses T3, HucR-E48Q. The source holds these as a separate data set.

Like-named read-outs stand apart in the source and are kept apart here.

Take `O=c1[nH]c(=O)c2[nH]c(=O)[nH]c2[nH]1` [urate]: the Kd on HucR-H51F [1] turned out to be 14.7 ± 1.2 µM; in assay [2], 11.4 ± 2.9 µM; on HucR-E48Q [3], 2.2 ± 0.8 µM.
With `O=c1[nH]c(=O)c2[nH]cnc2[nH]1` [xanthine], the Kd (in assay [4]; at HucR-H51F [5]; at HucR-E48Q [6]) was roughly 17 µM in each case.

For orientation: Kd means a measure of binding affinity in units of concentration. Higher therefore signals a looser complex.
